# Source: patent US10435399B2, “HDAC6 inhibitory heterocyclic compound” (TAKEDA PHARMACEUTICAL COMPANY LIMITED, priority 2017, dated 2019)
# Biological target: T1, HDAC6 enzyme (Homo sapiens, UniProt Q9UBN7)
# T1 construct: transducing full length HDAC6 gene into Sf-9 insect cells; GST; purchased SignalChem; host or cells: Sf-9 insect cells
# T1 sequence (Q9UBN7 1-1215): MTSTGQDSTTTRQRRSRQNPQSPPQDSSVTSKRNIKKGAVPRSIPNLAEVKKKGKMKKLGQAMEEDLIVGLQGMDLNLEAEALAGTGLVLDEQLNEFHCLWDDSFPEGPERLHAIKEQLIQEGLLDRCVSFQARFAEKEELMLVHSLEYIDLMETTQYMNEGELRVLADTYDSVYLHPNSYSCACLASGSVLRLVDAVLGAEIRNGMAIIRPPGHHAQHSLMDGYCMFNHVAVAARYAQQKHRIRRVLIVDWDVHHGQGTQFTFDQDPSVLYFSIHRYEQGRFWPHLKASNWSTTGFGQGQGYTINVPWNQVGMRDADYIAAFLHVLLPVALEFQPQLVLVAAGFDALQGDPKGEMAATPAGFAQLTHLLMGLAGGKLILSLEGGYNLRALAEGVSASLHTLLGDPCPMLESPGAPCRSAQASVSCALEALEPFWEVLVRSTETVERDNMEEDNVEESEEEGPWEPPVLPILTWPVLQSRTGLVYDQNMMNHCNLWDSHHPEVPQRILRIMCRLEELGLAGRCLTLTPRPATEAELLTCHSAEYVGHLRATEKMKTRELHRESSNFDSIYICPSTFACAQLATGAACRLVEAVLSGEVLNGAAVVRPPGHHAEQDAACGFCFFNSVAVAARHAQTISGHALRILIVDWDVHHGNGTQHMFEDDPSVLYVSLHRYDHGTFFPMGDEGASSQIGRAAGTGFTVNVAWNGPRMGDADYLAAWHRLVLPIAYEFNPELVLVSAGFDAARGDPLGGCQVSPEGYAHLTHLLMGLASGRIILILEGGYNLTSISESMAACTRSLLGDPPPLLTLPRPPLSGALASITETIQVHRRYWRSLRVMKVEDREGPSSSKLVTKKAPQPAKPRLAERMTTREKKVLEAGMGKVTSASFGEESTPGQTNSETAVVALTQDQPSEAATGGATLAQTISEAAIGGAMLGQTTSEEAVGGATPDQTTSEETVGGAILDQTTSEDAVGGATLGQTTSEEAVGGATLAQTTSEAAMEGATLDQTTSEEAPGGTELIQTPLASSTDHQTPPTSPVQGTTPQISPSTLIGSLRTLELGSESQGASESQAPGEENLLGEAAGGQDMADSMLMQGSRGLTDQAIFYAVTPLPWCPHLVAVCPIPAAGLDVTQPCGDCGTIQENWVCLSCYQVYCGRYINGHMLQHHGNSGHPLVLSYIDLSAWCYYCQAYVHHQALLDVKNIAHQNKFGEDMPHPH
# Experiment: HDAC6 enzyme inhibitory activity (HDAC-Glo I/II Assay kit)
# Assay type: biochemical
# Conditions: 10 μM; wells without enzyme = 100% inhibition
# In short: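 Sf-9-derived GST-purified full-length HDAC6 + cpd, 60 min RT, 24 mM Tris pH 7.5/0.6 mM glutathione/0.01% Tween-20; add HDAC-Glo substrate-developer, 20 min RT; luminescence. No-enzyme = 100% inhibition.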
row,HDAC6 inhibitory rate (%) (10 μM),Structure (SMILES)
1,100%,"O=C1c2cc(-c3nnc(C(F)F)o3)cnc2CN1[C@@H]1COCC[C@H]1Oc1ccc(F)cc1 [Example 633, 1,5-anhydro-2,4-dideoxy-2-(3-(5-(difluoromethyl)-1,3,4-oxadiazol-2-yl)-5-oxo-5,7-dihydro-6H-pyrrolo[3,4-b]pyridin-6-yl)-3-O-(4-fluorophenyl)-threo-pentitol (Optical Isomer)]"
2,100%,"O=C1c2cc(-c3nnc(C(F)F)o3)cnc2CN1[C@@H]1COCC[C@H]1Oc1ccc(F)c(F)c1 [Example 649, 1,5-anhydro-2,4-dideoxy-2-(3-(5-(difluoromethyl)-1,3,4-oxadiazol-2-yl)-5-oxo-5,7-dihydro-6H-pyrrolo[3,4-b]pyridin-6-yl)-3-O-(3,4-difluorophenyl)-threo-pentitol (Optical Isomer)]"
3,100%,"O=C1c2cc(-c3nnc(C(F)F)o3)cnc2CN1[C@@H]1COCC[C@H]1Oc1cc(F)cc(F)c1 [Example 651, 1,5-anhydro-2,4-dideoxy-2-(3-(5-(difluoromethyl)-1,3,4-oxadiazol-2-yl)-5-oxo-5,7-dihydro-6H-pyrrolo[3,4-b]pyridin-6-yl)-3-O-(3,5-difluorophenyl)-threo-pentitol (optical isomer)]"
4,99%,"O=C1c2cc(-c3nnc(C(F)F)o3)cnc2CN1[C@@H]1COCC[C@H]1Oc1cccc(F)c1 [Example 653, 1,5-anhydro-2,4-dideoxy-2-(3-(5-(difluoromethyl)-1,3,4-oxadiazol-2-yl)-5-oxo-5,7-dihydro-6H-pyrrolo[3,4-b]pyridin-6-yl)-3-O-(3-fluorophenyl)-threo-pentitol (optical isomer)]"

# Same assay, conditions: 10 μM; wells without enzyme = 100% inhibition; read-out: HDAC6 inhibitory rate (%) (10 μM)
row,Structure (SMILES),inhibition at 10 µM
1,"O=C1c2cc(-c3nnc(C(F)F)o3)cnc2CN1[C@@H]1COCC[C@H]1Oc1ccc(F)cc1 [Example 632, 1,5-anhydro-2,4-dideoxy-2-(3-(5-(difluoromethyl)-1,3,4-oxadiazol-2-yl)-5-oxo-5,7-dihydro-6H-pyrrolo[3,4-b]pyridin-6-yl)-3-O-(4-fluorophenyl)-threo-pentitol]",99%
2,"CCN(CC)C(=O)C1CC(F)(F)CCN1N1Cc2ccc(-c3nnc(C(F)F)o3)cc2C1=O (stereo not drawn) [Example 645, 1-(6-(5-(difluoromethyl)-1,3,4-oxadiazol-2-yl)-1-oxo-1,3-dihydro-2H-isoindol-2-yl)-N,N-diethyl-4,4-difluoropiperidine-2-carboxamide]",99%
3,"O=C1c2cc(-c3nnc(C(F)F)o3)cnc2CN1[C@@H]1COCC[C@H]1Oc1ccc(F)c(F)c1 [Example 646, 1,5-anhydro-2,4-dideoxy-2-(3-(5-(difluoromethyl)-1,3,4-oxadiazol-2-yl)-5-oxo-5,7-dihydro-6H-pyrrolo[3,4-b]pyridin-6-yl)-3-O-(3,4-difluorophenyl)-threo-pentitol]",99%
4,"O=C1c2cc(-c3nnc(C(F)F)o3)cnc2CN1[C@@H]1COCC[C@H]1Oc1ccccc1F [Example 647, 1,5-anhydro-2,4-dideoxy-2-(3-(5-(difluoromethyl)-1,3,4-oxadiazol-2-yl)-5-oxo-5,7-dihydro-6H-pyrrolo[3,4-b]pyridin-6-yl)-3-O-(2-fluorophenyl)-threo-pentitol (optical isomer)]",100%
5,"O=C1c2cc(-c3nnc(C(F)F)o3)cnc2CN1[C@@H]1COCC[C@H]1Oc1cccc(F)c1 [Example 652, 1,5-anhydro-2,4-dideoxy-2-(3-(5-(difluoromethyl)-1,3,4-oxadiazol-2-yl)-5-oxo-5,7-dihydro-6H-pyrrolo[3,4-b]pyridin-6-yl)-3-O-(3-fluorophenyl)-threo-pentitol (optical isomer)]",100%

# Results, then the compound that gave them:
row,inhibition at 10 µM,Structure (SMILES)
1,99%,"CC(C)(C)OC(=O)N[C@@H]1CCC(F)(F)C[C@H]1N1Cc2ccc(-c3nnc(C(F)F)o3)cc2C1=O [Example 634, tert-butyl ((1R,2R)-2-(6-(5-(difluoromethyl)-1,3,4-oxadiazol-2-yl)-1-oxo-1,3-dihydro-2H-isoindol-2-yl)-4,4-difluorocyclohexyl)carbamate]"
2,99%,"O=C1c2cc(-c3nnc(C(F)F)o3)ccc2CN1[C@@H]1CC(F)(F)CC[C@H]1NC(=O)C(F)(F)C(F)(F)F [Example 635, N-((1R,2R)-2-(6-(5-(difluoromethyl)-1,3,4-oxadiazol-2-yl)-1-oxo-1,3-dihydro-2H-isoindol-2-yl)-4,4-difluorocyclohexyl)-2,2,3,3,3-pentafluoropropanamide]"
3,100%,"O=C1c2cc(-c3nnc(C(F)F)o3)ccc2CN1[C@@H]1CC(F)(F)CC[C@H]1NC(=O)C(F)(F)C(F)F [Example 636, N-((1R,2R)-2-(6-(5-(difluoromethyl)-1,3,4-oxadiazol-2-yl)-1-oxo-1,3-dihydro-2H-isoindol-2-yl)-4,4-difluorocyclohexyl)-2,2,3,3-tetrafluoropropanamide]"
4,100%,"CC(F)(F)C(=O)N[C@@H]1CCC(F)(F)C[C@H]1N1Cc2ccc(-c3nnc(C(F)F)o3)cc2C1=O [Example 637, N-((1R,2R)-2-(6-(5-(difluoromethyl)-1,3,4-oxadiazol-2-yl)-1-oxo-1,3-dihydro-2H-isoindol-2-yl)-4,4-difluorocyclohexyl)-2,2-difluoropropanamide]"
5,93%,"N[C@@H]1CCC(F)(F)C[C@H]1N1Cc2ncc(-c3nnc(C(F)F)o3)cc2C1=O [Example 638, 6-((1R,2R)-2-amino-5,5-difluorocyclohexyl)-3-(5-(difluoromethyl)-1,3,4-oxadiazol-2-yl)-6,7-dihydro-5H-pyrrollo[3,4-b]pyridin-5-one]"
6,100%,"CC(F)(F)C(=O)N[C@@H]1CC(F)(F)CC[C@H]1N1Cc2ncc(-c3nnc(C(F)F)o3)cc2C1=O [Example 639, N-((1R,2R)-2-(3-(5-(difluoromethyl)-1,3,4-oxadiazol-2-yl)-5-oxo-5,7-dihydro-6H-pyrrolo[3,4-b]pyridin-6-yl)-5,5-difluorocyclohexyl)-2,2-difluoropropanamide]"
7,100%,"O=C1c2cc(-c3nnc(C(F)F)o3)cnc2CN1[C@@H]1CCC(F)(F)C[C@H]1NC(=O)C(F)(F)C(F)(F)F [Example 640, N-((1R,2R)-2-(3-(5-(difluoromethyl)-1,3,4-oxadiazol-2-yl)-5-oxo-5,7-dihydro-6H-pyrrolo[3,4-b]pyridin-6-yl)-5,5-difluorocyclohexyl)-2,2,3,3,3-pentafluoropropanamide]"
8,99%,"O=C1c2cc(-c3nnc(C(F)F)o3)cnc2CN1[C@@H]1CCC(F)(F)C[C@H]1NC(=O)C(F)(F)C(F)F [Example 641, N-((1R,2R)-2-(3-(5-(difluoromethyl)-1,3,4-oxadiazol-2-yl)-5-oxo-5,7-dihydro-6H-pyrrolo[3,4-b]pyridin-6-yl)-5,5-difluorocyclohexyl)-2,2,3,3-tetrafluoropropanamide]"
9,100%,"O=C1c2cc(-c3nnc(C(F)F)o3)cnc2CN1[C@@H]1CC(F)(F)CC[C@H]1NC(=O)C(F)(F)C(F)(F)F [Example 642, N-((1R,2R)-2-(3-(5-(difluoromethyl)-1,3,4-oxadiazol-2-yl)-5-oxo-5,7-dihydro-6H-pyrrolo[3,4-b]pyridin-6-yl)-4,4-difluorocyclohexyl)-2,2,3,3,3-pentafluoropropanamide]"
10,100%,CC(F)(F)C(=O)N[C@@H]1CCC(F)(F)C[C@H]1N1Cc2ncc(-c3nnc(C(F)F)o3)cc2C1=O [Example 643]
11,99%,"O=C1c2cc(-c3nnc(C(F)F)o3)cnc2CN1[C@@H]1CC(F)(F)CC[C@H]1NC(=O)C(F)(F)C(F)F [Example 644, N-((1R,2R)-2-(3-(5-(difluoromethyl)-1,3,4-oxadiazol-2-yl)-5-oxo-5,7-dihydro-6H-pyrrolo[3,4-b]pyridin-6-yl)-4,4-difluorocyclohexyl)-2,2,3,3-tetrafluoropropanamide]"
12,99%,"O=C1c2cc(-c3nnc(C(F)F)o3)cnc2CN1[C@@H]1COCC[C@H]1Oc1cc(F)cc(F)c1 [Example 650, 1,5-anhydro-2,4-dideoxy-2-(3-(5-(difluoromethyl)-1,3,4-oxadiazol-2-yl)-5-oxo-5,7-dihydro-6H-pyrrolo[3,4-b]pyridin-6-yl)-3-O-(3,5-difluorophenyl)-threo-pentitol (optical isomer)]"
